pIC50, pKd: −log10 of the molar value.
Key:
3-OST-3 [1] = target: T1, 3-OST-3 (Homo sapiens, UniProt Q9Y663); test: crystal structure of ternary complex, […] Å; format: binding; conditions: with PAP; sodium ion at saccharides f and g
T1 construct: gene HS3ST3A1; purified enzyme; two molecules in the asymmetric unit
T1 sequence (Q9Y663 1-406): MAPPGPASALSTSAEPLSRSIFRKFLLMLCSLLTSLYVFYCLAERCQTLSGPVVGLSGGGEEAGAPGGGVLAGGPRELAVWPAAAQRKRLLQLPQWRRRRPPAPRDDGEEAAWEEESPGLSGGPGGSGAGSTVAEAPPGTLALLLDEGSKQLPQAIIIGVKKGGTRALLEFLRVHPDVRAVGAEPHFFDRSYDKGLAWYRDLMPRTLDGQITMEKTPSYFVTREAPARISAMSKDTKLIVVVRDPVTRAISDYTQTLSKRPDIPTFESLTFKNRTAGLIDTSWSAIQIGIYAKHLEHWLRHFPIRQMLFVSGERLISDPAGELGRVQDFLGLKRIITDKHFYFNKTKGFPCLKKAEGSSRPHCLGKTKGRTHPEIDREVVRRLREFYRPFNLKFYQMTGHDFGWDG

3-OST-3 [2] = target: T1, 3-OST-3; test: inhibition of sulfotransferase activity; format: biochemical
3-OST-3 [3] = target: T1, 3-OST-3; test: isothermal titration calorimetry; format: binding

pIC50 (3-OST-3 [2]; product inhibition) | pKd (3-OST-3 [3]) | pIC50 (3-OST-3 [2]; product inhibition, 8-mer 1 sulfation) | pIC50 (3-OST-3 [2]; substrate inhibition, compound is itself slowly sulfated) | Structure (SMILES) | crystal structure of ternary complex, 2.34 Å (3-OST-3 [1])
– | – | – | – | CC(=O)N[C@H]1[C@@H](O[C@H]2[C@H](O)[C@@H](O)[C@H](O[C@H]3[C@H](O)[C@@H](NS(=O)(=O)O)[C@@H](O[C@H]4[C@H](O)[C@@H](OS(=O)(=O)O)[C@H](O[C@H]5[C@H](O)[C@@H](NS(=O)(=O)O)[C@@H](O[C@H]6[C@H](O)[C@@H](OS(=O)(=O)O)[C@H](O[C@H]7[C@H](O)[C@@H](NS(=O)(=O)O)[C@@H](O[C@H]8[C@H](O)[C@@H](O)[C@H](Oc9ccc([N+](=O)[O-])cc9)O[C@@H]8C(=O)O)O[C@@H]7CO)O[C@H]6C(=O)O)O[C@@H]5CO)O[C@H]4C(=O)O)O[C@@H]3CO)O[C@@H]2C(=O)O)O[C@H](CO)[C@@H](O)[C@@H]1O [8-mer 1] | crystal structures of 3-OST-3 in the presence of PAP, the sulfo donor product analog
7.92 | 5.33 | – | – | CC(=O)N[C@H]1[C@@H](O[C@H]2[C@H](O)[C@@H](O)[C@H](O[C@H]3[C@H](O)[C@@H](NS(=O)(=O)O)[C@@H](O[C@H]4[C@H](O)[C@@H](OS(=O)(=O)O)[C@H](O[C@H]5[C@H](OS(=O)(=O)O)[C@@H](NS(=O)(=O)O)[C@@H](O[C@H]6[C@H](O)[C@@H](OS(=O)(=O)O)[C@H](O[C@H]7[C@H](O)[C@@H](NS(=O)(=O)O)[C@@H](O[C@H]8[C@H](O)[C@@H](O)[C@H](Oc9ccc([N+](=O)[O-])cc9)O[C@@H]8C(=O)O)O[C@@H]7COS(=O)(=O)O)O[C@H]6C(=O)O)O[C@@H]5COS(=O)(=O)O)O[C@H]4C(=O)O)O[C@@H]3COS(=O)(=O)O)O[C@@H]2C(=O)O)O[C@H](COS(=O)(=O)O)[C@@H](O)[C@@H]1O [8-mer 4] | –
– | 4.13 | ~6.00 | – | CC(=O)N[C@H]1[C@@H](O[C@H]2[C@H](O)[C@@H](O)[C@H](O[C@H]3[C@H](O)[C@@H](NS(=O)(=O)O)[C@@H](O[C@H]4[C@H](O)[C@@H](OS(=O)(=O)O)[C@H](O[C@H]5[C@H](OS(=O)(=O)O)[C@@H](NS(=O)(=O)O)[C@@H](O[C@H]6[C@H](O)[C@@H](OS(=O)(=O)O)[C@H](O[C@H]7[C@H](O)[C@@H](NS(=O)(=O)O)[C@@H](O[C@H]8[C@H](O)[C@@H](O)[C@H](Oc9ccc([N+](=O)[O-])cc9)O[C@@H]8C(=O)O)O[C@@H]7CO)O[C@H]6C(=O)O)O[C@@H]5CO)O[C@H]4C(=O)O)O[C@@H]3CO)O[C@@H]2C(=O)O)O[C@H](CO)[C@@H](O)[C@@H]1O [8-mer 2] | –
– | 5.00 | – | 6.82 | CC(=O)N[C@H]1[C@@H](O[C@H]2[C@H](O)[C@@H](O)[C@H](O[C@H]3[C@H](O)[C@@H](NS(=O)(=O)O)[C@@H](O[C@H]4[C@H](O)[C@@H](OS(=O)(=O)O)[C@H](O[C@H]5[C@H](O)[C@@H](NS(=O)(=O)O)[C@@H](O[C@H]6[C@H](O)[C@@H](OS(=O)(=O)O)[C@H](O[C@H]7[C@H](O)[C@@H](NS(=O)(=O)O)[C@@H](O[C@H]8[C@H](O)[C@@H](O)[C@H](Oc9ccc([N+](=O)[O-])cc9)O[C@@H]8C(=O)O)O[C@@H]7COS(=O)(=O)O)O[C@H]6C(=O)O)O[C@@H]5COS(=O)(=O)O)O[C@H]4C(=O)O)O[C@@H]3COS(=O)(=O)O)O[C@@H]2C(=O)O)O[C@H](COS(=O)(=O)O)[C@@H](O)[C@@H]1O [8-mer 3] | –

Reference: article PMC8341778, “Deciphering the substrate recognition mechanisms of the heparan sulfate 3-O-sulfotransferase-3” (RSC Chemical Biology, 2021)
